In ChEMBL document CHEMBL4507300 (2021):

What was measured:
Histamine H1 receptor = Histamine H1 receptor (Homo sapiens, UniProt P35367); experiment: GPCRScan assay: inhibition of H1; set-up: radioligand conc. used [nm] 0.6 – 2.0, parental cells stable HEK
[1] = tested on: Tyrosine-protein kinase ABL1 (Homo sapiens), P00519 [E255K]; conditions: Compound concentration 1000.0 nM
[2] = target: RAC-gamma serine/threonine-protein kinase (Homo sapiens) (UniProt Q9Y243); conditions: Compound concentration 1000.0 nM
[3] = target: Aurora kinase A (Homo sapiens) (UniProt O14965); conditions: Compound concentration 1000.0 nM
[4] = target: Tyrosine-protein kinase Blk (Homo sapiens) (UniProt P51451); conditions: Compound concentration 1000.0 nM
Chain of Tyrosine-protein kinase Blk (Homo sapiens) (P51451 2-505 limits assumed): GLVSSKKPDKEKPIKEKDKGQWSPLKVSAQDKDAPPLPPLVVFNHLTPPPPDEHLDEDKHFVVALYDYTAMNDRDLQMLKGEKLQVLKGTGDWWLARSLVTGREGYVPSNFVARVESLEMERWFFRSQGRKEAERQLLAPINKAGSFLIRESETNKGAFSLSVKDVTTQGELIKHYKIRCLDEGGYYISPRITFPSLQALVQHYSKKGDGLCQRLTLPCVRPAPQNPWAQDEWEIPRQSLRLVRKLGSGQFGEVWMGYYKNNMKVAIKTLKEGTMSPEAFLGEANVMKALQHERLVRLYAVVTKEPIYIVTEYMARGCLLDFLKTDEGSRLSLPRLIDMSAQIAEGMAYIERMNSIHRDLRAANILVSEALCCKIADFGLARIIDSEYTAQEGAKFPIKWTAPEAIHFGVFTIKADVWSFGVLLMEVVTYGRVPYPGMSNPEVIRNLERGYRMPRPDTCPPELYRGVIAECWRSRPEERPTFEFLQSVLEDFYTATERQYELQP

[5] = target: Protein-tyrosine kinase 6 (Homo sapiens) (UniProt Q13882); conditions: Compound concentration 1000.0 nM
[6] = target: Calcium/calmodulin-dependent protein kinase type 1G (Homo sapiens) (UniProt Q96NX5); conditions: Compound concentration 1000.0 nM
[7] = target: Cyclin-dependent kinase 4 (Homo sapiens) (UniProt P11802); conditions: Compound concentration 1000.0 nM
Chain of Cyclin-dependent kinase 4 (Homo sapiens) (P11802 whole entry): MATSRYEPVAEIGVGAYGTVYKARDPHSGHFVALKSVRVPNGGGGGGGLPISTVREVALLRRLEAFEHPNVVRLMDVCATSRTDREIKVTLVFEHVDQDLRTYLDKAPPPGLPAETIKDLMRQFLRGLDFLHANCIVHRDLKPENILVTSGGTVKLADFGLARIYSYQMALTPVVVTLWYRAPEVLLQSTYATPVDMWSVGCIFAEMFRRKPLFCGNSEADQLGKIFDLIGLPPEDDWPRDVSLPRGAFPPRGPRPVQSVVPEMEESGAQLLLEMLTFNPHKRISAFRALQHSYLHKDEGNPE

[8] = target: Cyclin-dependent kinase 4 (Homo sapiens) (UniProt P11802); conditions: Compound concentration 1000.0 nM; remark: listed apart in the source
[9] = target: Cyclin-dependent kinase 7 (Homo sapiens) (UniProt P50613); conditions: Compound concentration 1000.0 nM
[10] = target: Cyclin-dependent kinase 9 (Homo sapiens) (UniProt P50750); conditions: Compound concentration 1000.0 nM
[11] = target: Casein kinase I isoform epsilon (Homo sapiens) (UniProt P49674); conditions: Compound concentration 1000.0 nM
[12] = target: Casein kinase II subunit alpha (Homo sapiens) (UniProt P68400); conditions: Compound concentration 1000.0 nM
[13] = target: Megakaryocyte-associated tyrosine-protein kinase (Homo sapiens) (UniProt P42679); conditions: Compound concentration 1000.0 nM
[14] = target: Mitogen-activated protein kinase kinase kinase 12 (Homo sapiens) (UniProt Q12852); conditions: Compound concentration 1000.0 nM
[15] = tested on: Epidermal growth factor receptor (Homo sapiens), P00533 [UNDEFINED MUTATION]; conditions: Compound concentration 1000.0 nM
Chain of Epidermal growth factor receptor (Homo sapiens), P00533 [UNDEFINED MUTATION] (P00533 whole entry, looked up, change not shown): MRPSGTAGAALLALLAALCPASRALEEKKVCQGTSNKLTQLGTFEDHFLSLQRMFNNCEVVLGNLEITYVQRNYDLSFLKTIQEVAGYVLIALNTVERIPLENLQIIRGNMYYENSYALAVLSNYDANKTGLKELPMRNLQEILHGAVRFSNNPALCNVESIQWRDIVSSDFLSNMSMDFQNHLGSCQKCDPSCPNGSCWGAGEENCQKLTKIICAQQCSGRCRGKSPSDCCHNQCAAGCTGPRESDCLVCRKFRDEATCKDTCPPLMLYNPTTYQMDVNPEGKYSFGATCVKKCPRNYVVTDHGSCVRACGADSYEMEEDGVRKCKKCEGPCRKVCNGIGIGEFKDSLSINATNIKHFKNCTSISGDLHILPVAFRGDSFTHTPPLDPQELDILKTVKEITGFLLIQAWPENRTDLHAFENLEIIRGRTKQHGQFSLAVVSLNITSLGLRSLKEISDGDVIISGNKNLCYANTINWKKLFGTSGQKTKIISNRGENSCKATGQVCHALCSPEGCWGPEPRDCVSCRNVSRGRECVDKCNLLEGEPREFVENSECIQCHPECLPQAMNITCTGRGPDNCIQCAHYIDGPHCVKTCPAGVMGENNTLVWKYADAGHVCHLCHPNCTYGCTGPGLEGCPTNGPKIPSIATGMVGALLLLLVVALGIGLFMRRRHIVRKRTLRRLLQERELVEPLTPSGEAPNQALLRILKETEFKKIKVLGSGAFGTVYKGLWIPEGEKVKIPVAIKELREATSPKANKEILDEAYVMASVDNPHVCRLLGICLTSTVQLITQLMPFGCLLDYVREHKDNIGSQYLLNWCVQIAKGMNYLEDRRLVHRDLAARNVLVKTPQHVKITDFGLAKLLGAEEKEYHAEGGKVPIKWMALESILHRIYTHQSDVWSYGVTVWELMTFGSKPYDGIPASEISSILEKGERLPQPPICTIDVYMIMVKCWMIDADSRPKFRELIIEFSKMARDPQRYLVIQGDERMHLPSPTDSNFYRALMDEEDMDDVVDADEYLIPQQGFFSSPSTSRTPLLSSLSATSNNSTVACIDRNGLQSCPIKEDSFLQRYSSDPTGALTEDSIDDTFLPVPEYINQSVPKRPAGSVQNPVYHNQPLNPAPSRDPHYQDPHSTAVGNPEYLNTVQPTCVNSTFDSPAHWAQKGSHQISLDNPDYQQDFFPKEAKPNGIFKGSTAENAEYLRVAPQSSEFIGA

[16] = target: Ephrin type-A receptor 5 (Homo sapiens) (UniProt P54756); conditions: Compound concentration 1000.0 nM
[17] = target: Ephrin type-B receptor 2 (Homo sapiens) (UniProt P29323); conditions: Compound concentration 1000.0 nM
[18] = target: Ephrin type-B receptor 6 (Homo sapiens) (UniProt O15197); conditions: Compound concentration 1000.0 nM
[19] = target: Receptor tyrosine-protein kinase erbB-3 (Homo sapiens) (UniProt P21860); conditions: Compound concentration 1000.0 nM
[20] = target: Serine/threonine-protein kinase/endoribonuclease IRE1 (Homo sapiens) (UniProt O75460); conditions: Compound concentration 1000.0 nM
[21] = target: Fibroblast growth factor receptor 4 (Homo sapiens) (UniProt P22455); conditions: Compound concentration 1000.0 nM
[22] = tested on: Receptor-type tyrosine-protein kinase FLT3 (Homo sapiens), P36888 [R834Q]; conditions: Compound concentration 1000.0 nM
[23] = target: Cyclin-G-associated kinase (Homo sapiens) (UniProt O14976); conditions: Compound concentration 1000.0 nM
[24] = target: Serine/threonine-protein kinase 10 (Homo sapiens) (UniProt O94804); conditions: Compound concentration 1000.0 nM
[25] = target: Mitogen-activated protein kinase kinase kinase 1 (Homo sapiens) (UniProt Q13233); conditions: Compound concentration 1000.0 nM
Chain of Mitogen-activated protein kinase kinase kinase 1 (Homo sapiens) (Q13233 whole entry): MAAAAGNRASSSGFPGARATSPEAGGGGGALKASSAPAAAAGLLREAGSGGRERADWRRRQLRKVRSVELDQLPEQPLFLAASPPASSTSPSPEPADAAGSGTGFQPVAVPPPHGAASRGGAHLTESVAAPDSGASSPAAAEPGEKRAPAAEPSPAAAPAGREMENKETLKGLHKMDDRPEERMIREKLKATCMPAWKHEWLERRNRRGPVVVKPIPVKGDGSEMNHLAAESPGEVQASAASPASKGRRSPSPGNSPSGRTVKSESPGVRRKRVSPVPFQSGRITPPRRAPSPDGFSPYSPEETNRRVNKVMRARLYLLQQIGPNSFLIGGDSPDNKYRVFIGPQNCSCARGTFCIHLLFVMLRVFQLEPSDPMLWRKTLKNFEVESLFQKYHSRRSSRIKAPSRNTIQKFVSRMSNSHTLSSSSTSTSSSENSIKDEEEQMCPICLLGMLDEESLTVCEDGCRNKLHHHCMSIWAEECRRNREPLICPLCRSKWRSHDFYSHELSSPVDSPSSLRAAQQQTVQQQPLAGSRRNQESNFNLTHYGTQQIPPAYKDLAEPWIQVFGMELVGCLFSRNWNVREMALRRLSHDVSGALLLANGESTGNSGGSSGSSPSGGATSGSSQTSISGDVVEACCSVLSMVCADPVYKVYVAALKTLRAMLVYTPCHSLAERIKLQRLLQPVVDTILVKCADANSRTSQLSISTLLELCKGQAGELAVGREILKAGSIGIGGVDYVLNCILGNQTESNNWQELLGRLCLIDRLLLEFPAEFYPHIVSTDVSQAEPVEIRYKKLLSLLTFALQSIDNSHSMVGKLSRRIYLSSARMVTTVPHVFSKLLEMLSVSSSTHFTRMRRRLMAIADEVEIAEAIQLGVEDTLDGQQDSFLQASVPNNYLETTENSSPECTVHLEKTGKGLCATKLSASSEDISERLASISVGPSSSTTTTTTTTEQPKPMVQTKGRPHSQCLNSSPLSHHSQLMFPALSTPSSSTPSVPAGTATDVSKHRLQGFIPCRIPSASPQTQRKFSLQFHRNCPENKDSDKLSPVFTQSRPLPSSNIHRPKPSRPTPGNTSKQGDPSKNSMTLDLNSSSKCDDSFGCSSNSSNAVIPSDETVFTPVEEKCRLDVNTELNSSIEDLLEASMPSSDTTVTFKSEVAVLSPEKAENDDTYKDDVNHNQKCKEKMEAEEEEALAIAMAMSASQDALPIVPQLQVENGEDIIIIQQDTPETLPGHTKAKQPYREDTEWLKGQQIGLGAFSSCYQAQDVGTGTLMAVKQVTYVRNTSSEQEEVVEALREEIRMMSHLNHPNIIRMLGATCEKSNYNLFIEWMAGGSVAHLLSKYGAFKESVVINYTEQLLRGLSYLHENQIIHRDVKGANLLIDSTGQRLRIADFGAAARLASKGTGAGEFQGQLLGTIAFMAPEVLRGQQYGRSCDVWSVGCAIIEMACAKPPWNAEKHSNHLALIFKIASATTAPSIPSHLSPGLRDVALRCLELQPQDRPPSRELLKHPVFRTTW

[26] = target: MAP/microtubule affinity-regulating kinase 3 (Homo sapiens) (UniProt P27448); conditions: Compound concentration 1000.0 nM
[27] = target: Dual specificity mitogen-activated protein kinase kinase 3 (Homo sapiens) (UniProt P46734); conditions: Compound concentration 1000.0 nM
[28] = target: Myosin-IIIa (Homo sapiens) (UniProt Q8NEV4); conditions: Compound concentration 1000.0 nM
[29] = target: Mitogen-activated protein kinase 12 (Homo sapiens) (UniProt P53778); conditions: Compound concentration 1000.0 nM
[30] = target: Serine/threonine-protein kinase PAK 4 (Homo sapiens) (UniProt O96013); conditions: Compound concentration 1000.0 nM
[31] = target: Cyclin-dependent kinase 18 (Homo sapiens) (UniProt Q07002); conditions: Compound concentration 1000.0 nM
[32] = target: Platelet-derived growth factor receptor beta (Homo sapiens) (UniProt P09619); conditions: Compound concentration 1000.0 nM
[33] = target: Phosphatidylinositol 4,5-bisphosphate 3-kinase catalytic subunit alpha isoform (Homo sapiens) (UniProt P42336); conditions: Compound concentration 1000.0 nM
[34] = target: Phosphatidylinositol 4,5-bisphosphate 3-kinase catalytic subunit beta isoform (Homo sapiens) (UniProt P42338); conditions: Compound concentration 1000.0 nM
[35] = target: 1-phosphatidylinositol 3-phosphate 5-kinase (Homo sapiens) (UniProt Q9Y2I7); conditions: Compound concentration 1000.0 nM
[36] = target: Phosphatidylinositol 5-phosphate 4-kinase type-2 gamma (Homo sapiens) (UniProt Q8TBX8); conditions: Compound concentration 1000.0 nM
[37] = target: cAMP-dependent protein kinase catalytic subunit alpha (Homo sapiens) (UniProt P17612); conditions: Compound concentration 1000.0 nM
[38] = target: Protein kinase C eta type (Homo sapiens) (UniProt P24723); conditions: Compound concentration 1000.0 nM
[39] = tested on: Proto-oncogene tyrosine-protein kinase receptor Ret (Homo sapiens), P07949 [V804M]; conditions: Compound concentration 1000.0 nM
[40] = target: Receptor-interacting serine/threonine-protein kinase 4 (Homo sapiens) (UniProt P57078); conditions: Compound concentration 1000.0 nM
[41] = target: Ribosomal protein S6 kinase alpha-5 (Homo sapiens) (UniProt O75582); conditions: Compound concentration 1000.0 nM
[42] = target: Activated CDC42 kinase 1 (Homo sapiens) (UniProt Q07912); conditions: Compound concentration 1000.0 nM
Chain of Activated CDC42 kinase 1 (Homo sapiens) (Q07912 whole entry, looked up): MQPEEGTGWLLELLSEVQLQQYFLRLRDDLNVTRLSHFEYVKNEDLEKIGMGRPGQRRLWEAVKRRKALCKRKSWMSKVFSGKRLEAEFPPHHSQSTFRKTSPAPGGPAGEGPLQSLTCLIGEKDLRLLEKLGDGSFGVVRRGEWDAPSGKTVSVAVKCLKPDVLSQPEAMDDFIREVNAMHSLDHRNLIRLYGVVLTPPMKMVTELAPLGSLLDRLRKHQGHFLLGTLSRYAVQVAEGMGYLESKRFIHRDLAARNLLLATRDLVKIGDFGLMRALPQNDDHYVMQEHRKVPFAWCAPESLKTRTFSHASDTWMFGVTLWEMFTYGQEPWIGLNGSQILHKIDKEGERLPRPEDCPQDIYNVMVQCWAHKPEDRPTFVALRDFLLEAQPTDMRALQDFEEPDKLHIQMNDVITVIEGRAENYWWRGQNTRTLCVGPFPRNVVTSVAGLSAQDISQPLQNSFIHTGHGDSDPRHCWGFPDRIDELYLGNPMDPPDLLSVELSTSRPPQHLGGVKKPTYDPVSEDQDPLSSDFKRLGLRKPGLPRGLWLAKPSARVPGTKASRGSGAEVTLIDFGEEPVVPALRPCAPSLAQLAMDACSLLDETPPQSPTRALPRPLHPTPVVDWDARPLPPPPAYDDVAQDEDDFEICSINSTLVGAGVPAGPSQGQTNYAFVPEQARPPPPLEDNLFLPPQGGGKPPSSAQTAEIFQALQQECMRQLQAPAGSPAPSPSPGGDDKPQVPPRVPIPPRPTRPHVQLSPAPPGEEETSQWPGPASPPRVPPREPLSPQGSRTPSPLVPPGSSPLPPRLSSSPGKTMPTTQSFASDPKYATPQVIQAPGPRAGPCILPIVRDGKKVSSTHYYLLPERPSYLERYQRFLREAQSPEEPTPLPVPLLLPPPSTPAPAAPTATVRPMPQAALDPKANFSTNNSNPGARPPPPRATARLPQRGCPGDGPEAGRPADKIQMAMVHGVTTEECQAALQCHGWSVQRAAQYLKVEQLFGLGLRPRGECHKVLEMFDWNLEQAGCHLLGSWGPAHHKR

[43] = target: D(4) dopamine receptor (Homo sapiens) (UniProt P21917); conditions: Compound concentration 10.0 uM
Chain of D(4) dopamine receptor (Homo sapiens) (P21917 whole entry): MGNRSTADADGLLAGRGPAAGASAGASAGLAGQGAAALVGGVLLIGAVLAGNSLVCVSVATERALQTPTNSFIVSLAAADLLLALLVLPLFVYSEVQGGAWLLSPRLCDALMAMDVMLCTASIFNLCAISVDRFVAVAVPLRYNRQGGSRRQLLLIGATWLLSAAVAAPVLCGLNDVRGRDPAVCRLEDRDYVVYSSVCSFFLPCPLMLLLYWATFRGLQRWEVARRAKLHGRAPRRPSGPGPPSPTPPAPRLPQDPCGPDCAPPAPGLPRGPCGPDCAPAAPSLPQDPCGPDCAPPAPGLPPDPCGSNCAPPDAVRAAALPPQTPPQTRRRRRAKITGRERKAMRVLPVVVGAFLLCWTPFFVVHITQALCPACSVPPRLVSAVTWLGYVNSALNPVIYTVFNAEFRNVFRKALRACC

[44] = target: Muscarinic acetylcholine receptor M2 (Homo sapiens) (UniProt P08172); conditions: Compound concentration 10.0 uM

Question: With COc1cccc(CNC(=O)c2nc3scc(COCc4ccc(C(=O)O)cc4)c3c(=O)[nH]2)c1 [T-26c] as the molecule, how does the Ki (Histamine H1 receptor) read?
Answer: 98 nM

Question: What about the residual activity [1] of the same molecule?
Answer: 83%

Question: What about the residual activity [2] of the same molecule?
Answer: 84.8%

Question: And the residual activity [3]?
Answer: 80.9%

Question: What about the residual activity [4] of the same molecule?
Answer: 100%

Question: What about the residual activity [5] of the same molecule?
Answer: 82.5%

Question: And the residual activity [6]?
Answer: 100%

Question: And the residual activity [7]?
Answer: 61.7%

Question: And the residual activity [8]?
Answer: 91.1%

Question: What about the residual activity [9] of the same molecule?
Answer: 80.5%

Question: And the residual activity [10]?
Answer: 78.6%

Question: What about the residual activity [11] of the same molecule?
Answer: 100%

Question: What about the residual activity [12] of the same molecule?
Answer: 90.7%

Question: What about the residual activity [13] of the same molecule?
Answer: 97.8%

Question: What about the residual activity [14] of the same molecule?
Answer: 58.2%

Question: What about the residual activity [15] of the same molecule?
Answer: 76%

Question: And the residual activity [16]?
Answer: 98.5%

Question: What about the residual activity [17] of the same molecule?
Answer: 95.7%

Question: And the residual activity [18]?
Answer: 100%

Question: What about the residual activity [19] of the same molecule?
Answer: 89.4%

Question: And the residual activity [20]?
Answer: 89.7%

Question: And the residual activity [21]?
Answer: 91.4%

Question: And the residual activity [22]?
Answer: 77.9%

Question: What about the residual activity [23] of the same molecule?
Answer: 99.6%

Question: What about the residual activity [24] of the same molecule?
Answer: 67.8%

Question: And the residual activity [25]?
Answer: 63.1%

Question: What about the residual activity [26] of the same molecule?
Answer: 100%

Question: And the residual activity [27]?
Answer: 92.9%

Question: What about the residual activity [28] of the same molecule?
Answer: 88%

Question: And the residual activity [29]?
Answer: 92.1%

Question: And the residual activity [30]?
Answer: 100%

Question: And the residual activity [31]?
Answer: 100%

Question: And the residual activity [32]?
Answer: 99%

Question: And the residual activity [33]?
Answer: 78.8%

Question: What about the residual activity [34] of the same molecule?
Answer: 54.8%

Question: And the residual activity [35]?
Answer: 100%

Question: What about the residual activity [36] of the same molecule?
Answer: 74.7%

Question: What about the residual activity [37] of the same molecule?
Answer: 100%

Question: And the residual activity [38]?
Answer: 83.7%

Question: And the residual activity [39]?
Answer: 95.3%

Question: What about the residual activity [40] of the same molecule?
Answer: 67.1%

Question: And the residual activity [41]?
Answer: 93.1%

Question: What about the residual activity [42] of the same molecule?
Answer: 89.6%

Question: And the inhibition [43]?
Answer: 13.9%

Question: And the inhibition [44]?
Answer: -2.95%
